Test results reported in article PMC2216936 (The Journal of General Physiology, 1995).

Experiments:
[1] = biological target: voltage-gated sodium channel (sheep brain synaptoneurosomes; isoform not stated); assay: inhibition of [3H]-BTX-B radioligand binding at […] C; parameters: species or system Ovis aries
[2] = test system: voltage-gated sodium channel (GH3 cells; isoform not stated); assay: whole-cell voltage clamp, block of peak INa; format: cell-based

An IC50 [1] of 3.3 µM and an IC50 [2] of 27 µM were found for CCCCN(CCCC)CCNC(=O)c1ccc(N=[N+]=[N-])cc1 [DNB-AB, N-(2-di-N-butyl-aminoethyl)-4-azidobenzamide] in this work.
